Measurements published in patent publication US20220145406A1, “BIOMARKERS, AND USES IN TREATMENT OF VIRAL INFECTIONS, INFLAMMATIONS, OR CANCER” (ABIVAX, priority 2018, published 2022).

System: CD4+ T cells
Assay: RNAseq differential alternative splicing analysis (SUPPA) of cellular genes
Format: cell-based, human
Design: key to differential splicing Event type, gene ZNF177 / differential splicing Event type, gene FGF22 / differential splicing Event type, gene AL157955.2 / differential splicing Event type, gene TMEM147 / differential splicing Event type, gene ATIC / differential splicing Event type, gene CDRT15 / differential splicing Event type, gene WDR72 / differential splicing Event type, gene GNRHR2 / differential splicing Event type, gene ZNE584 / differential splicing Event type, gene LINC01869 / differential splicing Event type, gene LINC01119: Alternative 5′ splice site (A5); Alternative 3′ splice site (A3); Alt exons: Alternative first and last exons (Altexons); Retained intron (RI)
Description: Buffy coats from HIV-negative individuals were obtained from the local blood donation center in Centre de transfusion sanguine Montpellier. Human peripheral blood mononuclear cells (PBMCs) were isolated by Ficoll (Histopaque, Sigma) gradient centrifugation. CD4+ and CD8+ T cells were purified from PBMCs after Ficoll gradient centrifugation by Human CD4+ beads positive selection and CD8+ beads positive selection, respectively (Miltenyi). PBMCs, CD4+ and CD8+ T cells were grown at 37° C. and 5% CO2 to a density of 1.5×10^6 cells/ml in RPMI GlutaMAX medium (Life Technologies) supplemented with 10% fetal calf serum (FCS) (Thermo Fisher), 40 U/ml of IL2 (PeproTech) and 5 μg/mL of PHA (Roche) for 2 days. Three days later, cells were resuspended at 1.5×10^6 cells/ml in RPMI supplemented with 10% FCS and 40 U/ml IL2 and separated into two parts (infected and uninfected cells). Cells were infected with 80 ng of p24/106 cells of the YU-2 strain for 4 to 6 hours and then rinsed with PBS before medium renewal.
Both infected and uninfected cells were then centrifuged and resuspended to a density of 1.5×10^6 cells/ml in medium supplemented with diluted drug solubilized in DMSO (Sigma) to a final 0.05% DMSO concentration or antiretroviral compounds according to the manufacturer's instructions. Cells were treated for 6 days with a medium renewal at day 3. HIV p24 titration was performed by ELISA from cell culture supernatants with Innotest kit (Ingen) according to the manufacturer's instructions.
A full-detailed report describing the complete analysis was submitted to Gene Expression Omnibus (GEO, https://www.ncbi.nlm.nih.gov/geo/query/acc.cgi?acc=GSE116073). Total RNA extraction was performed according to the Qiagen miRNeasy □ kit. RNA concentrations were determined using Qubit[…] fluorometric quantification and purity by the RNA 6000 Bioanalyzer kit (Agilent). RNA-Seq libraries were constructed with the TruSeq stranded mRNA sample preparation (low-throughput protocol) kit from Illumina, according to the manufacturer's instructions. Aliquots of 1.2 μg of total RNA were used for the construction of the libraries. The final cDNA libraries were validated with a Fragment Analyzer (Advanced Analytical, Ankeny, Iowa) and quantified with a KAPA qPCR kit (Kapa Biosystems, Wilmington, Mass.). On the 8 sequencing lanes of a flow cell V4, the 32 libraries were pooled in equal proportions by sets of 4 libraries per lane, denatured with NaOH and diluted to […] before clustering. Cluster formation and primer hybridization and single-end read, 50-cycle sequencing were performed on the cBot and HiSeq 2500 (Illumina, San Diego, Calif.), respectively. Image analysis and base calling were performed using the HiSeq Control Software with the Real-Time Analysis component. Demultiplexing was performed using Illumina's sequencing analysis software. The quality of the data was assessed using FastQC from the Babraham Institute and the Illumina software SAV (Sequence Analysis Viewer). Potential contaminants were investigated with the FastQ Screen software from the Babraham Institute.
To investigate splicing activity we used SUPPA v2.0.0, a tool developed in Python 3.4 and especially designed for this approach. To study splicing across multiple conditions, we performed three modular operations that were run separately. The first step was to generate events from the annotation file commonly named the GTF file (general […]). The second step was to quantify event inclusion levels (PSIs) from our samples. Finally, differential splicing across multiple conditions was calculated for all replicates.
To generate the different alternative splicing events from an input annotation file (GTF format), the method reads transcript and gene information solely from the “exon” lines in the GTF. It then generates the events and outputs an ‘ioe’ file, which contains the relationship between each event and the transcripts that share this particular event. […]

[1] = ABX464_NI_VS_DMSO_NI, uninfected CD4 T cells

FC(F)(F)Oc1ccc(Nc2ccc3cccc(Cl)c3n2)cc1 [ABX464, 8-chloro-N-(4-(trifluoromethoxy)phenyl)quinolin-2-amine]
differential splicing Event type, gene AL157955.2 [1]: A3 | differential splicing Event type, gene ATIC [1]: A5 | differential splicing Event type, gene CDRT15 [1]: A5 | differential splicing Event type, gene FGF22 [1]: A3 | differential splicing Event type, gene GNRHR2 [1]: RI | differential splicing Event type, gene LINC01119 [1]: A3 | differential splicing Event type, gene LINC01869 [1]: A3 | differential splicing Event type, gene TMEM147 [1]: RI | differential splicing Event type, gene WDR72 [1]: A5 | differential splicing Event type, gene ZNE584 [1]: A3 | differential splicing Event type, gene ZNF177 [1]: A3 | number of common and differential splicing events (infected and uninfected CD4+ T cells treated with ABX464, ΔPSI >0.4, p <0.05): < 10 events
